{
  "source": "patent US8148392B2",
  "about": "“2-indolyl imidazo [4,5-d] phenanthroline derivatives and their use in the treatment of cancer” (Lorus Therapeutics Inc., priority 2005, dated 2012)",
  "key": {"[1]": {"test_system": "MOLT-4 leukemia cell line", "assay": "NCI DTP in vitro screen, MOLT-4", "type": "cell-based", "settings": "Homo sapiens", "experimental": "(§1) For example, the following methodology, which is currently employed by the NCI, can be used to assess the GI50 of a candidate compound of Formula I in the selected cancer cell lines. Briefly, cell suspensions are diluted (5000-40,000 cells per well) and 100 μL of the diluted cell suspension is added into 96-well microtiter plates. Inoculates are allowed a preincubation period of 24 h at 37° C. for stabilization. Dilutions at twice the intended test concentration of the candidate compound are added at time zero in 100 μL aliquots to the microtiter plate wells. Test compounds are generally evaluated at five 10-fold dilutions. In routine testing, the highest well concentration is usually 10E-4 M, but this may be adjusted depending on the compound being tested. […] The cells are then assayed by using the sulforhodamine B assay (see, for example, Skehan, P., et al. (1990) JNCI, J. Natl. Cancer Inst. 82, 1107-1112; and Chen, S. F., et al. (1990) Proc. Am. Assoc. Cancer Res. 31, A2644) employing a plate reader which can be used to read the optical densities.\n(§2) Compounds 2 and 3 were evaluated for their antiproliferative effects in a panel of 60 human cancer cell lines as part of the in vitro anticancer screening services provided by the DTP (Developmental Therapeutics Program) of the US National Cancer Institute (NCI)."}, "KLF4 protein": {"test_system": "KLF4 protein", "assay": "KLF4 protein in HT-29 cells, Western blot", "type": "cell-based, human", "settings": "HT-29, 2.5, 5, 7.5 and 10 μM, 16 hours", "experimental": "The ability of compound of Formula I to increase expression of KLF4 protein was determined as follows. HT-29 cells were treated with vehicle control (DMSO), TPEN (4 μM), ZnCl2 (100 μM), or compound 3 (2.5, 5, 7.5 and 10 μM) for 16 hours. Cells were lysed and subjected to Western blot with anti-KLF4 antibodies, or GAPDH antibodies to ensure equal protein loading."}, "[2]": {"test_system": "CCRF-CEM leukemia cell line", "assay": "NCI DTP in vitro screen, CCRF-CEM", "type": "cell-based", "settings": "Homo sapiens", "experimental": "as §1, §2"}, "[3]": {"test_system": "fourth leukemia cell line (a myeloma cell line)", "assay": "NCI DTP in vitro screen, fourth leukemia cell line", "type": "cell-based", "settings": "Homo sapiens", "experimental": "as §1, §2"}, "KLF4": {"test_system": "KLF4", "assay": "KLF4 mRNA in HT-29 tumour xenografts, RT-PCR", "type": "in vivo, CD-1 female nude mice", "experimental": "The ability of compound 3 to modulate expression of KLF4 in HT-29 colon tumour xenograft was determined as follows. Groups of 10 CD-1 female nude mice (6-7 weeks) were injected in the lower mid back with human colon adenocarcinoma cells HT-29 cells (3×10^6 cells in 0.1 ml PBS) subcutaneously. […] After the treatment period, the animals were sacrificed, the tumours excised, and total RNA was extracted from 30 mg of tumour tissue using Rneasy Mini kit (QIAGEN, Valencia, Calif.). The expression of KLF4 mRNA was analyzed by real-time polymerase chain reaction using the comparative CT method as described in Example 19. […]\nTo examine the effect of compound 3-mediated changes in KLF4 and Cyclin D1 expressions in vivo, the expressions of respective genes in xenograft tissues of vehicle control (Lutrol) and compound 3-treated HT-29 colon cancer cell-transplanted mice were analyzed by RT-PCR (FIG. 46). Briefly, KLF4 and Cyclin D1 gene expression in HT-29 xenograft tissues after 14 days treatment with compound 3 was measured as follows. […] Total RNA was extracted and gene expression level was determined by RT-PCR. […]\nThe tumor regression efficacy of compound 3 was assessed in compound 3-treated HT-29-transplanted athymic mice (FIG. 54A), and correlated with gene expressions of MTF-1, KLF4 and Cyclin D1 in HT-29 xenograft tissues (FIG. 54B). […]"}, "p21": {"test_system": "p21", "assay": "p21 mRNA in HT-29 tumour xenografts, RT-PCR", "type": "in vivo, CD-1 female nude mice", "settings": "HT-29 xenograft, versus vehicle", "experimental": "The ability of compound 3 to modulate expression of p21 in vivo was determined using the HT-29 colon tumour xenograft model as described in Example 26. The expression of p21 mRNA was analyzed by real-time polymerase chain reaction analysis using the comparative CT method as described in Example 30."}, "Sp1": {"test_system": "Sp1", "assay": "Sp1 binding to Cyclin D1 promoter, ChIP, HT-29", "type": "cell-based, human", "settings": "HT-29, ChIP", "experimental": "Based on overlapping transcription factor binding sites on Cyclin D1 gene promoter region (FIG. 33A), increased binding of a negative regulator KLF4 may replace the binding of a positive regulator Sp1. In vivo KLF4 and Sp1 binding to Cyclin D1 promoter was shown by chromatin immuno-precipitation assay (ChIP) (FIG. 33B).\nChromatin immunoprecipitation (ChIP) was performed as follows. Cell lysates from HT-29 cells (5.5×10^5 cells in three 15 cm-culture plates in each experimental group) were prepared at the end of the indicated experiments, and ChIP assays were performed using anti-KLF4 and anti-Sp1 antibodies (Santa Cruz Biotechnology Inc.) and ChIP-ITTM kit (Active Motif, Carlsbad, Calif.) by following the manufacturer's instruction. The primers encompassing-231 to -92 region of Cyclin D1 promoter; 5′ primer (5′-CGGACTACAGGGGCAA-3′) [SEQ ID NO:1] and 3′ primer (5′-GCTCCAGGACTTTGCA-3′) [SEQ ID NO:2] were synthesized at Invitrogen."}},
  "note": "Entries after “also recorded” stand apart in the source; their conditions may differ.",
  "data": [
    {"smiles": "Cc1[nH]c2ccccc2c1-c1nc2c3cccnc3c3ncccc3c2[nH]1", "note": "[Compound 3]", "values": [
      {"measurement": "GI50", "setting": "[1]", "result": 16, "unit": "nM"},
      {"measurement": "level of KLF4 protein", "setting": "KLF4 protein", "result": "able to increase the level of KLF4 protein"},
      {"measurement": "GI50", "setting": "[2]", "result": 30, "unit": "nM"},
      {"measurement": "GI50", "setting": "[3]", "result": 2880, "unit": "nM"},
      {"measurement": "induction of KLF4 in tumour xenografts", "setting": "KLF4; 50 mg/kg/d, 35 days, versus vehicle", "result": "approximately 1.5 fold"},
      {"measurement": "KLF4 gene expression in xenograft tissue, change", "setting": "KLF4; 100 mg/kg i.p., 14 days or 2 cycles of 5 days", "result": "increase in KLF4 gene; also recorded: significant increase in KLF4"},
      {"measurement": "p21 expression in tumour xenografts", "setting": "p21", "result": "induced the expression of p21"},
      {"measurement": "Sp1 binding to Cyclin D1 promoter", "setting": "Sp1", "result": "decreased Sp1 binding"}
    ]}
  ]
}
